This passage reports IC50 and MIC results from patent US20190330224A1, “ACC INHIBITORS AND USES THEREOF” (Gilead Apollo, LLC, priority 2015, published 2019).

One assay concerns the target Human ACC2 (Homo sapiens, UniProt O00763). Kind of assay: In vitro ACC2 inhibition assay (ADP-Glo), human ACC2. It counts as biochemical. The settings on record: 5 nM ACC2, 20 μM ATP, 20 μM acetyl-CoA. On the technique in general: In ADP-Glo the light output rises with the ADP produced.
A further assay has as its target Fungal ACC2 (UniProt Q00955). The settings on record: read-out: Fungal ACC2 (IC50, in vitro ACC2 inhibition).
The subject of another assay is C. albicans ATCC 90028. The experiment in a line: Anti-Fungal Activity Assay (broth microtiter MIC), C. albicans. It counts as cell-based, Candida albicans. The settings on record: Candida albicans, ATCC90028, 48 h, 3 replicates; MIC recorded at 48 h; read-out: MIC C. albicans ATCC 90028. Here is the method:
(§1) Compounds of the present invention were evaluated in an Anti-Fungal Activity Assay. An exemplary procedure for the assay, which measures the susceptibility of various Candida species to anti-fungal compounds, follows. Compounds to be tested (including fluconazole and amphotericin B) were dissolved in DMSO to obtain a solution having a concentration of 1 mg/mL. […] All species were grown from frozen stock by directly plating on to freshly prepared Sabouraud Dextrose agar (BD, Difco) and incubated overnight in ambient air at 35° C. for 24 h. A direct suspension was prepared in RPMI 1640+MOPS (Lonza, Biowhittaker) by taking individual colonies from the overnight cultures using sterile swabs soaked in sterile saline. The concentration of the suspension was determined using pre-determined standard curves. […] Broth microtiter MIC challenge plates were prepared following CLSI guidelines (M27-A3, Vol. 28 No. 14). The original CLSI guidelines focused on reading Candida MICs after 48 h of incubation. As reading after only 24 h offers a clear advantage of patient care, QC limits are being established for all drugs at 24 h. That being said there are no known interpretive breakpoints for amphotericin B at 24 h and the current fluconazole interpretive breakpoints are based on a 48 h reading. The MIC breakpoints for the test compounds were recorded at 48 h, and for the soraphen the 24 h time-point was added. All MIC determinations were achieved by visually comparing the growth found in the antibiotic challenged wells to that of the growth control.

For the next assay, the system named is C. krusei ATCC 6258. Kind of assay: Anti-Fungal Activity Assay (broth microtiter MIC), C. krusei. It counts as cell-based, Candida krusei. The settings on record: Pichia kudriavzevii, ATCC6258, 48 h, 3 replicates; MIC recorded at 48 h; read-out: MIC C. krusei ATCC 6258. Here is the method:
as §1

Assay [1] has as its system C. parapsilosis ATCC 22019. Kind of assay: Anti-Fungal Activity Assay (broth microtiter MIC), C. parapsilosis. It counts as cell-based, Candida parapsilosis. The settings on record: Lodderomyces parapsilosis, ATCC22019, 48 h, 3 replicates; MIC recorded at 48 h; read-out: MIC C. parapsilosis ATCC 22019. Here is the method: as §1

SMILES strings stand for the structures. In brackets after ≈: the same amount, converted by molar mass.

Fungal ACC2, sequence (Q00955 whole entry): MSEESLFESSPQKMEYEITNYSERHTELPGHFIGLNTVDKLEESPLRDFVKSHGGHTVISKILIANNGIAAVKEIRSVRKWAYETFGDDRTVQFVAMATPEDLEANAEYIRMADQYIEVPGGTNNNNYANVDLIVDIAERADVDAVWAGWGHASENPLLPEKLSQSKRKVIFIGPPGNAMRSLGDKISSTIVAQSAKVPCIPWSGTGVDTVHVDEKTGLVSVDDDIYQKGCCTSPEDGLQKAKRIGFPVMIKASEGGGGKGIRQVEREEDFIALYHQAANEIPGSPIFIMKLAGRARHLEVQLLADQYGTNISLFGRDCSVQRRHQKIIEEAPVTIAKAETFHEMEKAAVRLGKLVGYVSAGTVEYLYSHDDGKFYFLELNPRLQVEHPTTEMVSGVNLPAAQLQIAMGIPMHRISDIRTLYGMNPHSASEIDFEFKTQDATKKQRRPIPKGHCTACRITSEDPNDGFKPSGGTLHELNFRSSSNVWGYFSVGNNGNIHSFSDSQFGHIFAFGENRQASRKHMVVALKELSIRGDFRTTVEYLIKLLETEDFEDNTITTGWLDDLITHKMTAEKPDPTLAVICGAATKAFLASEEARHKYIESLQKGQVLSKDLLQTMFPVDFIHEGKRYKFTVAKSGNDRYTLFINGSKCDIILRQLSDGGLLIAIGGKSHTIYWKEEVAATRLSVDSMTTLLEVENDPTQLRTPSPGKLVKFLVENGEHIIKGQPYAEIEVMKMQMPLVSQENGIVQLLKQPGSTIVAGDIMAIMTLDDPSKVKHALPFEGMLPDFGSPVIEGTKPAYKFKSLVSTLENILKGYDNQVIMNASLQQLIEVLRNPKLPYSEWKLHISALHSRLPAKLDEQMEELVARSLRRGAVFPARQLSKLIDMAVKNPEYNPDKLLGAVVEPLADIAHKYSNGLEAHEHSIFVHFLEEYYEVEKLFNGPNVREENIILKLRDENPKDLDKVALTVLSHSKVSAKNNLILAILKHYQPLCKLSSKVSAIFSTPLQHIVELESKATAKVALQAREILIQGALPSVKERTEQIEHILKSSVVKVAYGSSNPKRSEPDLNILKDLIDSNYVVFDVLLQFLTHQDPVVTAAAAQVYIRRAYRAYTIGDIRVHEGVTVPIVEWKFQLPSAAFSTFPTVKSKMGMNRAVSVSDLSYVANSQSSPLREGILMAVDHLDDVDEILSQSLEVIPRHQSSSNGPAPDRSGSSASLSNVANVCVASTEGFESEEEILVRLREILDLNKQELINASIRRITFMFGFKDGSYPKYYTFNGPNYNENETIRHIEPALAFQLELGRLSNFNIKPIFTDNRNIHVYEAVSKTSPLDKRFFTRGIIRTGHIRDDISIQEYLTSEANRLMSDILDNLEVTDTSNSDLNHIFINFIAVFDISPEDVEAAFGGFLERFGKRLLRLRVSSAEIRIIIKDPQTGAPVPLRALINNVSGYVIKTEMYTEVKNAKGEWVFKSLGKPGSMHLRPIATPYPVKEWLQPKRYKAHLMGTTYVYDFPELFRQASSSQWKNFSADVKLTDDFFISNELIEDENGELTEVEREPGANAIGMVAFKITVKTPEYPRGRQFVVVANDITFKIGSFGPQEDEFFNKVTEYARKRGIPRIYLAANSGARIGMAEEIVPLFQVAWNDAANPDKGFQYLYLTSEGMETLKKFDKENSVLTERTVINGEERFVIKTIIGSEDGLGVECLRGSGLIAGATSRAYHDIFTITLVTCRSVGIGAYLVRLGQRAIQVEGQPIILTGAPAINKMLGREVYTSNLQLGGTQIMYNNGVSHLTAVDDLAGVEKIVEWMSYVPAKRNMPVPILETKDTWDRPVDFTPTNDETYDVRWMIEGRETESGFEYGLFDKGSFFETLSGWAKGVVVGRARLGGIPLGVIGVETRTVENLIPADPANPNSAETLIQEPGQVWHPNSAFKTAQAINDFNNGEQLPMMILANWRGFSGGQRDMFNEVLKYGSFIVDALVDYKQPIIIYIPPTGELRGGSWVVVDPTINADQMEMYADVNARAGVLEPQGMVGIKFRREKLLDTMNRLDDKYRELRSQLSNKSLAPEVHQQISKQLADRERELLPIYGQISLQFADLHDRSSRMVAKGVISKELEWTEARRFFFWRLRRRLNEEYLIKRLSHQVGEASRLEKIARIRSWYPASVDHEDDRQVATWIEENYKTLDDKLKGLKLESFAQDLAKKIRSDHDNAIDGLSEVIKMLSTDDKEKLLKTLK
Human ACC2, sequence (O00763 whole entry): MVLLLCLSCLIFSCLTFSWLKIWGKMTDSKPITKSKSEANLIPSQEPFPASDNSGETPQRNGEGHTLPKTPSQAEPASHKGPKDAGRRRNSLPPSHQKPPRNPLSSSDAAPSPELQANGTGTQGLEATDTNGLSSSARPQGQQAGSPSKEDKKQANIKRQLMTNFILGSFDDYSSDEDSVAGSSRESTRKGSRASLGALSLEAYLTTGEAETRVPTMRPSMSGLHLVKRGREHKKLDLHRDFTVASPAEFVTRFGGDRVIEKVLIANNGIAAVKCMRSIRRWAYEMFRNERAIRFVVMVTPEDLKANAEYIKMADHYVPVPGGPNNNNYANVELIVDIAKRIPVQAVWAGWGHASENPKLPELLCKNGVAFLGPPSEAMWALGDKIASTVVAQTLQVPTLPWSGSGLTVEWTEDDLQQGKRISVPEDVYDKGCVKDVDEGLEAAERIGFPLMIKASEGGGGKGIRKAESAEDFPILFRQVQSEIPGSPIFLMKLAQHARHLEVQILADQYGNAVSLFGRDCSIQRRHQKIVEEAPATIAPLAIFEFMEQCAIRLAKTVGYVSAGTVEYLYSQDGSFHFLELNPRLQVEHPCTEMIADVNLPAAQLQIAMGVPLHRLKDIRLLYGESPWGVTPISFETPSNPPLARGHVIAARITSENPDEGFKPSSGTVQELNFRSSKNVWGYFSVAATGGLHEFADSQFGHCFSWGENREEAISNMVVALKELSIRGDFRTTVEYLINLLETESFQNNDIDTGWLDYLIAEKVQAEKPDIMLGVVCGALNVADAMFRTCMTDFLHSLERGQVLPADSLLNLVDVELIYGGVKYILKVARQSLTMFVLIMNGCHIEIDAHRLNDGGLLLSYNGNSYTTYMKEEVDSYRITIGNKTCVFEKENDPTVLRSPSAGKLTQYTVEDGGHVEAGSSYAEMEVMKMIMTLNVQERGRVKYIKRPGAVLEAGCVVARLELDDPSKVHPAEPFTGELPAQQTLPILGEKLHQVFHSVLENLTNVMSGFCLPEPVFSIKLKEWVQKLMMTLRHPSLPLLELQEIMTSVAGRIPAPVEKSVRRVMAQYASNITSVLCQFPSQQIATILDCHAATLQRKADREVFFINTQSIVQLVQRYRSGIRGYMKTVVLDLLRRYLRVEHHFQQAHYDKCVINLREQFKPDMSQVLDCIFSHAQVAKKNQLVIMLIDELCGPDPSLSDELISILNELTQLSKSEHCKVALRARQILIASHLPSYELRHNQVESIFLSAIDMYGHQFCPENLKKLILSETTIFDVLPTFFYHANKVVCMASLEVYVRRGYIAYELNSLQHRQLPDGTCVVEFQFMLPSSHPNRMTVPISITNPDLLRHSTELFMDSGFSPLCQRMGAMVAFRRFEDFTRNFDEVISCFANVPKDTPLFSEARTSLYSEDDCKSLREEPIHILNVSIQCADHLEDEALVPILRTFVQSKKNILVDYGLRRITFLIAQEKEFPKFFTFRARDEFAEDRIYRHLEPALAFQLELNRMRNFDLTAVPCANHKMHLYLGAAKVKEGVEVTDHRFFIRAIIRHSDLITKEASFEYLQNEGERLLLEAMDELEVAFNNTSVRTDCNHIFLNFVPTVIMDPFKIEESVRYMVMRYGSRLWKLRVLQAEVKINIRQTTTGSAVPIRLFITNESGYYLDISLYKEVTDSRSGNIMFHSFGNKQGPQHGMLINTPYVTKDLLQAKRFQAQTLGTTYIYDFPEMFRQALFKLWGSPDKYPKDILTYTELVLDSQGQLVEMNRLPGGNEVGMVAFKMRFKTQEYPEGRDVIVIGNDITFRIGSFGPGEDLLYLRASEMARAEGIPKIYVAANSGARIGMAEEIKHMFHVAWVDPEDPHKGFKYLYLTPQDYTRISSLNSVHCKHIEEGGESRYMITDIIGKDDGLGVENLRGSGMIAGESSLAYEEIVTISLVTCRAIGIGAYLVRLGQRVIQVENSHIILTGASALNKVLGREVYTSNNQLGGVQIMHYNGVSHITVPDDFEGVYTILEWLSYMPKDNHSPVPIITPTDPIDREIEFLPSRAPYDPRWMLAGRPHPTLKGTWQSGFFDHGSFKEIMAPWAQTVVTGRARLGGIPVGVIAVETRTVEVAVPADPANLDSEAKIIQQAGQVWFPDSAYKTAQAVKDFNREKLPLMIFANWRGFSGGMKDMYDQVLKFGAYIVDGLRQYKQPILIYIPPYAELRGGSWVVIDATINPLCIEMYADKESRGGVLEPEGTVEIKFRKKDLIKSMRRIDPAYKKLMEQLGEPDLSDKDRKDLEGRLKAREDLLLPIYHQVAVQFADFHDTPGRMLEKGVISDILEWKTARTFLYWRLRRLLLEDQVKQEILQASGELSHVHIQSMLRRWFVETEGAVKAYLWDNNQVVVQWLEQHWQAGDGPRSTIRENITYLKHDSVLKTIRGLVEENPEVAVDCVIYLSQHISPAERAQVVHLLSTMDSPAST

With `COCCO[C@@H](Cn1c(=O)n([C@@]2(C)CCNC2=O)c(=O)c2c(C)c(-n3nccn3)sc21)c1cc(F)ccc1OC` [Compound I-141, 1-((R)-2-(5-fluoro-2-methoxyphenyl)-2-(2-methoxyethoxy)ethyl)-5-methyl-3-((S)-3-methyl-2-oxopyrrolidin-3-yl)-6-(2H-1,2,3-triazol-2-yl)thieno[2,3-d]pyrimidine-2,4(1H,3H)-dione], the IC50 against Human ACC2 and on Fungal ACC2 was over 1000 nM throughout.
Take `COCCO[C@@H](Cn1c(=O)n(C2CCCN(C)C2=O)c(=O)c2c(C)c(-n3nccn3)sc21)c1cc(F)ccc1OC` (stereo partly drawn) [Compound I-14, 1-((R)-2-(5-fluoro-2-methoxyphenyl)-2-(2-methoxy-ethoxy)ethyl)-5-methyl-3-(1-methyl-2-oxopiperidin-3-yl)-6-(2H-1,2,3-triazol-2-yl)thieno[2,3-d]pyrimidine-2,4(1H,3H)-dione]: the IC50 was in the range of 10 to 100 nM at Human ACC2 and 2 to 10 nM at Fungal ACC2.
In the same order, the values of `COc1ccc(F)cc1[C@H](Cn1c(=O)n([C@@H]2CCNC2=O)c(=O)c2c(C)c(-c3ncco3)sc21)O[C@H]1CC[C@@H](O)CC1` [Compound I-191, 1-((R)-2-(5-fluoro-2-methoxyphenyl)-2-(((1s, 4S)-4-hydroxycyclohexyl)oxy)ethyl)-5-methyl-6-(oxazol-2-yl)-3-((R)-2-oxopyrrolidin-3-yl)thieno[2,3-d]pyrimidine-2,4(1H,3H)-dione] are 0.7 to 2 nM and 0.7 to 2 nM.
For `COc1ccccc1[C@H](Cn1c(=O)n([C@H]2CCCNC2=O)c(=O)c2c(C)c(-c3ncco3)sc21)OCCO` [Compound I-60, 1-((R)-2-(2-hydroxyethoxy)-2-(2-methoxyphenyl)ethyl)-5-methyl-6-(oxazol-2-yl)-3-((S)-2-oxopiperidin-3-yl)thieno[2,3-d]pyrimidine-2,4(1H,3H)-dione] the same measures were 10 to 100 nM and 0.7 to 2 nM.
In the same order, the values of `COc1ccc(F)cc1[C@H](Cn1c(=O)n([C@@H]2CCN(C)C2=O)c(=O)c2c(C)c(-c3ncco3)sc21)O[C@H]1CC[C@@H](O)CC1` [Compound I-193, 1-((R)-2-(5-fluoro-2-methoxyphenyl)-2-(((1 s, 4S)-4-hydroxycyclohexyl)oxy)ethyl)-5-methyl-3-((R)-1-methyl-2-oxopyrrolidin-3-yl)-6-(oxazol-2-yl)thieno[2,3-d]pyrimidine-2,4(1H,3H)-dione] are 2 to 10 nM and 0.7 to 2 nM.
Turning to `COc1ccc(F)cc1[C@H](Cn1c(=O)n([C@@H]2CCN(C)C2=O)c(=O)c2c(C)c(-n3nccn3)sc21)O[C@H]1C[C@H](O)C1` [Compound I-185, 1-((R)-2-(5-fluoro-2-methoxyphenyl)-2-((1r,3R)-3-hydroxycyclobutoxy)ethyl)-5-methyl-3-((R)-1-methyl-2-oxopyrrolidin-3-yl)-6-(2H-1,2,3-triazol-2-yl)thieno[2,3-d]pyrimidine-2,4(1H,3H)-dione], the IC50 was 2 to 10 nM at Human ACC2 and 0.7 to 2 nM on Fungal ACC2.
Turning to `COc1ccccc1[C@H](Cn1c(=O)n(C2CCCN(C)C2=O)c(=O)c2c(C)c(-c3ncco3)sc21)OC1CCOCC1` (stereo partly drawn) [Compound I-50, 1-((R)-2-(2-methoxyphenyl)-2-((tetrahydro-2H-pyran-4-yl)oxy)ethyl)-5-methyl-3-(1-methyl-2-oxopiperidin-3-yl)-6-(oxazol-2-yl)thieno[2,3-d]pyrimidine-2,4(1H,3H)-dione], the IC50 at Human ACC2 was 10 to 100 nM. Further, the MIC (with C. albicans ATCC 90028; in the assay on C. krusei ATCC 6258; in assay [1]) was 2.1 to 4 µg/mL (≈ 3.53 to 6.73 µM) throughout.
On Human ACC2, `COc1ccc(F)cc1[C@H](Cn1c(=O)n([C@H]2CCCN(C)C2=O)c(=O)c2c(C)c(-c3ncco3)sc21)OCCO` [Compound I-63, 1-((R)-2-(5-fluoro-2-methoxyphenyl)-2-(2-hydroxy-ethoxy)ethyl)-5-methyl-3-((S)-1-methyl-2-oxopiperidin-3-yl)-6-(oxazol-2-yl)thieno[2,3-d]pyrimidine-2,4(1H,3H)-dione] yielded an IC50 of 10 to 100 nM. Moreover, the MIC (in the assay with C. albicans ATCC 90028; with C. krusei ATCC 6258; in assay [1]) was 2.1 to 4 µg/mL (≈ 3.67 to 6.99 µM) throughout.
As for `COc1ccc(F)cc1[C@H](Cn1c(=O)n([C@H]2CCNC2=O)c(=O)c2c(C)c(-n3nccn3)sc21)OC1CCOCC1` [Compound I-33, 1-((R)-2-(5-fluoro-2-methoxyphenyl)-2-((tetrahydro-2H-pyran-4-yl)oxy)ethyl)-5-methyl-3-((S)-2-oxopyrrolidin-3-yl)-6-(2H-1,2,3-triazol-2-yl)thieno[2,3-d]pyrimidine-2,4(1H,3H)-dione], the IC50 at Human ACC2 is 2 to 10 nM. Moreover, the MIC in the assay on C. albicans ATCC 90028 is 2.1 to 4 µg/mL (≈ 3.59 to 6.84 µM); in the assay on C. krusei ATCC 6258, 1.1 to 2 µg/mL (≈ 1.88 to 3.42 µM); in assay [1], 2.1 to 4 µg/mL (≈ 3.59 to 6.84 µM).
Take `CCN1CC[C@@H](n2c(=O)c3c(C)c(-n4nccn4)sc3n(C[C@H](OC3CCOCC3)c3cc(F)ccc3OC)c2=O)C1=O` [Compound I-151]: the IC50 against Human ACC2 fell in the range of 2 to 10 nM. The minimum inhibitory concentration (MIC) in the assay with C. albicans ATCC 90028 was in the range of 0.25 to 1 µg/mL (≈ 0.408 to 1.63 µM); with C. krusei ATCC 6258, 0.075 to 0.24 µg/mL (≈ 0.122 to 0.392 µM); in assay [1] it was 0.25 to 1 µg/mL (≈ 0.408 to 1.63 µM).
`COc1ccc(F)cc1[C@H](Cn1c(=O)n(C2CCN(C)C2=O)c(=O)c2c(C)c(-c3ncco3)sc21)OC1CCOCC1` (stereo partly drawn) [Compound I-59, 1-((R)-2-(5-fluoro-2-methoxyphenyl)-2-((tetrahydro-2H-pyran-4-yl)oxy)ethyl)-5-methyl-3-(1-methyl-2-oxopyrrolidin-3-yl)-6-(oxazol-2-yl)thieno[2,3-d]pyrimidine-2,4(1H,3H)-dione] came in with an IC50 against Human ACC2 of 2 to 10 nM. In addition, the MIC lay within 1.1 to 2 µg/mL (≈ 1.84 to 3.34 µM) with C. albicans ATCC 90028, 0.25 to 1 µg/mL (≈ 0.418 to 1.67 µM) with C. krusei ATCC 6258 and 2.1 to 4 µg/mL (≈ 3.51 to 6.68 µM) in assay [1].
For `COc1ccccc1[C@H](Cn1c(=O)n(C2CCN(C)C2=O)c(=O)c2c(C)c(-c3ncco3)sc21)OC1CCOCC1` (stereo partly drawn) [Compound I-57, 1-((R)-2-(2-methoxyphenyl)-2-((tetrahydro-2H-pyran-4-yl)oxy)ethyl)-5-methyl-3-(1-methyl-2-oxopyrrolidin-3-yl)-6-(oxazol-2-yl)thieno[2,3-d]pyrimidine-2,4(1H,3H)-dione] the same measures were 10 to 100 nM, 1.1 to 2 µg/mL (≈ 1.89 to 3.44 µM), 1.1 to 2 µg/mL (≈ 1.89 to 3.44 µM) and 2.1 to 4 µg/mL (≈ 3.62 to 6.89 µM).
For `COc1ccc(F)cc1[C@H](Cn1c(=O)n(C2CCCN(C)C2=O)c(=O)c2c(C)c(-c3ncco3)sc21)OC1CCOCC1` (stereo partly drawn) [Compound I-52, 1-((R)-2-(5-fluoro-2-methoxyphenyl)-2-((tetrahydro-2H-pyran-4-yl)oxy)ethyl)-5-methyl-3-(I-methyl-2-oxopiperidin-3-yl)-6-(oxazol-2-yl)thieno[2,3-d]pyrimidine-2,4(1H,3H)-dione] the same measures were 10 to 100 nM, 2.1 to 4 µg/mL (≈ 3.43 to 6.53 µM), 1.1 to 2 µg/mL (≈ 1.8 to 3.26 µM) and 2.1 to 4 µg/mL (≈ 3.43 to 6.53 µM).
As for `COc1ccc(F)cc1[C@H](Cn1c(=O)n(C2CCCNC2=O)c(=O)c2c(C)c(-n3nccn3)sc21)OCCO` (stereo partly drawn) [Compound I-17, 1-((R)-2-(5-fluoro-2-methoxyphenyl)-2-(2-hydroxy-ethoxy)ethyl)-5-methyl-3-(2-oxopiperidin-3-yl)-6-(2H-1,2,3-triazol-2-yl)thieno[2,3-d]pyrimidine-2,4(1H,3H)-dione], the IC50 on Human ACC2 fell in the range of 2 to 10 nM. For the same molecule, the MIC (in the assay on C. albicans ATCC 90028; in the assay with C. krusei ATCC 6258; in assay [1]) was 2.1 to 4 µg/mL (≈ 3.76 to 7.16 µM) in each case.

Broadly, the IC50 is the concentration needed to halve the response being measured. As usually defined, the MIC is the smallest concentration in the dilution series that meets the test's criterion for growth inhibition.
